Source: patent publication US20240217978A1 (CHONG KUN DANG PHARMACEUTICAL CORP., priority 2021, published 2024)

Target: human adenosine A2a receptor (Homo sapiens (Human), UniProt P29274)
Assay: A2a receptor binding affinity, [3H]-NECA radioligand binding test
Details: [3H]-NECA 37 nM; membrane from HEK-293 cells transfected with human adenosine A2a receptor
Method in brief: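 IC50 values (μM) come from displacement of [3H]-NECA, used at 37 nM final, on human A2a receptor membranes from transfected HEK-293 cells. Incubation lasted one hour at room temperature in Tris/MgCl2/EDTA buffer, pH 7.4; filter-bound radioactivity was counted by scintillation.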

human adenosine A2a receptor, sequence (P29274 whole entry): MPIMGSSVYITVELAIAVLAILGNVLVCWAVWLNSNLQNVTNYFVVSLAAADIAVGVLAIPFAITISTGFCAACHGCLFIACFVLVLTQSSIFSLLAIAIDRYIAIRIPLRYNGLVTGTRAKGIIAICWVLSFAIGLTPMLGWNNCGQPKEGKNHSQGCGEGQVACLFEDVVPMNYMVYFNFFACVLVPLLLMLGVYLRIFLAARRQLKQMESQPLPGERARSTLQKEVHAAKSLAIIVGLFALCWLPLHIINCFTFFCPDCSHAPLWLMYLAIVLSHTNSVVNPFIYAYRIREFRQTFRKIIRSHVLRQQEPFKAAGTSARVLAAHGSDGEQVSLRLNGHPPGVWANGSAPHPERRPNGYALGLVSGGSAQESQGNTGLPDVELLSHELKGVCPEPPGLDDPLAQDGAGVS

Compound | IC50 [nM]
C[C@H]1CN(C(=O)Nc2ccccc2)CCN1C(=O)[C@@H]1CCCN1c1nc(N)n2nc(-c3ccco3)nc2n1 [Example 181, (S)-4-((7-amino-2-(furan-2-yl)-[1,2,4]triazolo [1,5-a][1,3,5]triazine-5-yl)-L-prolyl)-3-methyl-N-phenylpiperazin-1-carboxamide] | 11
COCCN1CCN(C(=O)[C@H](C)Nc2nc(N)n3nc(-c4ccco4)nc3n2)CC1 [Example 118, (S)-2-((7-amino-2-(furan-2-yl)-[1,2,4]triazolo[1,5-a][1,3,5]triazin-5-yl)amino)-1-(4-(2-methoxyethyl)piperazin-1-yl)propan-1-one] | 21
Nc1nc(N2CCC[C@H]2C(=O)N2CC3CCC(C2)N3Cc2ccc(F)cc2F)nc2nc(-c3ccco3)nn12 [Example 50, ((S)-1-(7-amino-2-(furan-2-yl)-[1,2,4]triazolo[1,5-a][1,3,5]triazin-5-yl)pyrrolidin-2-yl)(8-(2,4-difluorobenzyl)-3,8-diazabicyclo[3.2.1]octan-3-yl)methanone] | 9
CC[C@H](Nc1nc(N)n2nc(-c3ccco3)nc2n1)C(=O)N1CCN(CC(C)(C)F)CC1 [Example 338, (S)-2-((7-amino-2-(furan-2-yl)-[1,2,4]triazolo[1,5-a][1,3,5]triazin-5-yl)amino)-1-(4-(2-fluoro-2-methylpropyl)piperazin-1-yl)butan-1-one] | 14
Nc1nc(N2CCC[C@H]2C(=O)N2CCN(S(=O)(=O)C3CC3)CC2)nc2nc(-c3ccco3)nn12 [Example 69, (S)-(1-(7-amino-2-(furan-2-yl)-[1,2,4]triazolo[1,5-a][1,3,5]triazin-5-yl)pyrrolidin-2-yl)(4-(cyclopropylsulfonyl)piperazin-1-yl)methanone] | 68
COCCN1CCN(C(=O)[C@@H](Nc2nc(N)n3nc(-c4ccco4)nc3n2)C2CCCCC2)CC1 [Example 188, (S)-2-((7-amino-2-(furan-2-yl)-[1,2,4]triazolo[1,5-a][1,3,5]triazin-5-yl)amino)-2-cyclohexyl-1-(4-(2-methoxyethyl)piperazin-1-yl)ethan-1-one] | 10
Nc1nc(N2CCC[C@H]2C(=O)N2CCN(C(=O)C3(C(F)(F)F)CC3)CC2)nc2nc(-c3ccco3)nn12 [Example 74] | 13
CC(F)(F)CN1CCN(C(=O)[C@@H]2CCCN2c2nc(N)n3nc(-c4ccco4)nc3n2)C2(CC2)C1 [Example 343, (S)-(1-(7-amino-2-(furan-2-yl)-[1,2,4]triazolo[1,5-a][1,3,5]triazin-5-yl)pyrrolidin-2-yl)(7-(2,2-difluoropropyl)-4,7-diazaspiro[2.5]octan-4-yl)methanone] | 9
Nc1nc(N2CCC[C@H]2C(=O)N2C[C@@H]3C[C@H]2CN3Cc2ccc(F)cc2F)nc2nc(-c3ccco3)nn12 [Example 44, ((S)-1-(7-amino-2-(furan-2-yl)-[1,2,4]triazolo[1,5-a][1,3,5]triazin-5-yl)pyrrolidin-2-yl)((1S,4S)-5-(2,4-difluorobenzyl)-2,5-diazabicyclo[2.2.1]heptan-2-yl)methanone] | 10
CC(C)[C@H](Nc1nc(N)n2nc(-c3ccco3)nc2n1)C(=O)N1CCN(CC(C)(C)O)CC1 [Example 351, (S)-2-((7-amino-2-(furan-2-yl)-[1,2,4]triazolo[1,5-a][1,3,5]triazin-5-yl)amino)-1-(4-(2-hydroxy-2-methylpropyl)piperazin-1-yl)-3-methylbutan-1-one] | 17
CCCC[C@H](Nc1nc(N)n2nc(-c3ccco3)nc2n1)C(=O)N1CCN(CCCC)CC1 [Example 173, (S)-2-((7-amino-2-(furan-2-yl)-[1,2,4]triazolo[1,5-a][1,3,5]triazin-5-yl)amino)-1-(4-butylpiperazin-1-yl)hexan-1-one] | 16
Nc1nc(N[C@H](C(=O)N2CCN(c3nccs3)CC2)C2CCOCC2)nc2nc(-c3ccco3)nn12 [Example 249, (S)-2-((7-amino-2-(furan-2-yl)-[1,2,4]triazolo[1,5-a][1,3,5]triazin-5-yl)amino)-2-(tetrahydro-2H-pyran-4-yl)-1-(4-(thiazol-2-yl)piperazin-1-yl)ethan-1-one] | 9
C[C@H](Nc1nc(N)n2nc(-c3ccco3)nc2n1)C(=O)N1CCN(Cc2ccccc2)CC1 [Example 21, (S)-2-((7-amino-2-(furan-2-yl)-[1,2,4]triazolo[1,5-a][1,3,5]triazin-5-yl)amino)-1-(4-benzylpiperazin-1-yl)propan-1-one] | 30
CCCCN1CCN(C(=O)[C@@H](Nc2nc(N)n3nc(-c4ccco4)nc3n2)C2CC2)CC1 [Example 176, (S)-2-((7-amino-2-(furan-2-yl)-[1,2,4]triazolo[1,5-a][1,3,5]triazin-5-yl)amino)-1-(4-butylpiperazin-1-yl)-2-cyclopropylethan-1-one] | 16

Continued by falling IC50, values first:

IC50 [nM] | Compound
9 | Nc1nc(N[C@H](C(=O)N2CCC(N3CC(F)(F)C3)CC2)C2CCCCC2)nc2nc(-c3ccco3)nn12 [Example 186, (S)-2-((7-amino-2-(furan-2-yl)-[1,2,4]triazolo[1,5-a][1,3,5]triazin-5-yl)amino)-2-cyclohexyl-1-(4-(3,3-difluoroazetidin-1-yl)piperidin-1-yl)ethan-1-one]
8 | CC[C@H](Nc1nc(N)n2nc(-c3ccco3)nc2n1)C(=O)N1CCN(c2ncccn2)CC1 [Example 346, (S)-2-((7-amino-2-(furan-2-yl)-[1,2,4]triazolo[1,5-a][1,3,5]triazin-5-yl)amino)-1-(4-(pyrimidin-2-yl)piperazin-1-yl)butan-1-one]
7 | CCOC[C@H](Nc1nc(N)n2nc(-c3ccco3)nc2n1)C(=O)N1CCN(c2ncccn2)CC1 [Example 307, (S)-2-((7-amino-2-(furan-2-yl)-[1,2,4]triazolo[1,5-a][1,3,5]triazin-5-yl)amino)-3-ethoxy-1-(4-(pyrimidin-2-yl)piperazin-1-yl)propan-1-one]
6 | COC[C@H](Nc1nc(N)n2nc(-c3ccco3)nc2n1)C(=O)N1CCN(CC(C)(C)F)CC1 [Example 303, (S)-2-((7-amino-2-(furan-2-yl)-[1,2,4]triazolo[1,5-a][1,3,5]triazin-5-yl)amino)-1-(4-(2-fluoro-2-methylpropyl)piperazin-1-yl)-3-methoxypropan-1-one]
6 | Nc1nc(N2CCC[C@H]2C(=O)N2CCN(c3ccccc3F)CC2)nc2nc(-c3ccco3)nn12 [Example 120, (S)-(1-(7-amino-2-(furan-2-yl)-[1,2,4]triazolo[1,5-a][1,3,5]triazin-5-yl)pyrrolidin-2-yl)(4-(2-fluorophenyl)piperazin-1-yl)methanone]
5 | Nc1nc(N[C@@H](CO)C(=O)N2CCN(CC(F)(F)F)CC2)nc2nc(-c3ccco3)nn12 [Example 231, (S)-2-((7-amino-2-(furan-2-yl)-[1,2,4]triazolo[1,5-a][1,3,5]triazin-5-yl)amino)-3-hydroxy-1-(4-(2,2,2-trifluoroethyl)piperazin-1-yl)propan-1-one]
3 | Nc1nc(N2CCC[C@H]2C(=O)N2CCN(CC(F)F)CC2)cc2nc(-c3ccco3)nn12 [Example 293, (S)-(1-(5-amino-2-(furan-2-yl)-[1,2,4]triazolo[1,5-c]pyrimidin-7-yl)pyrrolidin-2-yl)(4-(2,2-difluoroethyl)piperazin-1-yl)methanone]
2 | Nc1nc(N2CCC[C@H]2C(=O)N2CCC3(CC2)CN(C(=O)Nc2ccccc2)C3)nc2nc(-c3ccco3)nn12 [Example 183, 7-((7-amino-2-(furan-2-yl)-[1,2,4]triazolo[1,5-a][1,3,5]triazin-5-yl)-L-prolyl)-N-phenyl-2,7-diazaspiro[3.5]nonane-2-carboxamide]
2 | CCCCN1CCC(C2CCN(C(=O)[C@@H]3CCN3c3cc4nc(-c5ccco5)nn4c(N)n3)CC2)CC1 [Example 383, (S)-(1-(5-amino-2-(furan-2-yl)-[1,2,4]triazolo[1,5-c]pyrimidin-7-yl)azetidin-2-yl)(1′-butyl-[4,4′-bipiperidin]-1-yl)methanone]
2 | Nc1nc(N2CCC[C@H]2C(=O)N2CCN(C(=O)C3(C(F)(F)F)CCCC3)CC2)nc2nc(-c3ccco3)nn12 [Example 76]
1.26 | CC(C)C(=O)N1CCN(C(=O)[C@H](Cc2ccccc2)Nc2nc(N)n3nc(-c4ccco4)nc3n2)CC1 [Example 5, (S)-2-((7-amino-2-(furan-2-yl)-[1,2,4]triazolo[1,5-a][1,3,5]triazin-5-yl)amino)-1-(4-isobutyrylpiperazin-1-yl)-3-phenylpropan-1-one]
1 | CC1(C)C[C@@H](C(=O)N2CCN(CC(F)(F)F)CC2)N(c2nc(N)n3nc(-c4ccco4)nc3n2)C1 [Example 387, (S)-(1-(7-amino-2-(furan-2-yl)-[1,2,4]triazolo[1,5-a][1,3,5]triazin-5-yl)-4,4-dimethylpyrrolidin-2-yl)(4-(2,2,2-trifluoroethyl)piperazin-1-yl)methanone]
0.9 | Nc1nc(N2CCC[C@H]2C(=O)N2CCN(CC(F)(F)C(F)(F)F)CC2)nc2sc(-c3ccco3)nc12 [Example 261, (S)-(1-(7-amino-2-(furan-2-yl)thiazolo[5,4-d]pyrimidin-5-yl)pyrrolidin-2-yl)(4-(2,2,3,3,3-pentafluoropropyl)piperazin-1-yl)methanone]
0.368 | Nc1nc(N[C@H](C(=O)N2CCN(Cc3ccc(F)cc3F)CC2)c2ccccc2)nc2nc(-c3ccco3)nn12 [Example 14, (S)-2-((7-amino-2-(furan-2-yl)-[1,2,4]triazolo[1,5-a][1,3,5]triazin-5-yl)amino)-1-(4-(2,4-difluorobenzyl)piperazin-1-yl)-2-phenylethan-1-one]
0.1 | Nc1nc(N[C@@H](Cc2ccccc2)C(=O)N2CCN(Cc3ccc(F)cc3F)CC2)nc2nc(-c3ccco3)nn12 [Example 13, (S)-2-((7-amino-2-(furan-2-yl)-[1,2,4]triazolo[1,5-a][1,3,5]triazin-5-yl)amino)-1-(4-(2,4-difluorobenzyl)piperazin-1-yl)-3-phenylpropan-1-one]
